What was measured:
responder CD4+ T cells = assay: Proliferation of anti-CD3 stimulated GABA responder CD4+ T cells from ND individuals; type: cell-based, human; conditions: Example 1, FIG. 1B; CD4-positive cells from 10 healthy donors; 100 nM GABA
Experimental: (§1) Peripheral Blood Mononuclear cells (PBMCs) are isolated from blood from donors diagnosed with Type-1 diabetes and healthy controls. Alternatively, CD4-positive cells (T-cells) are further isolated from PBMCs by e.g. MACS beads, FACS or similar technology. […] A reasonable replication, such as 3 cultures of each condition, is performed. A normalized proliferation value for each culture is then calculated by a standard proliferation measurement method, such as by CFSE staining or radioactive thymidine incorporation (requiring additional factors be added during culture) or by staining for proliferation markers.
(§2) In the FIG. 1, the proliferation of cells retrieved from 13 T1D subjects and 15 healthy controls were inspected. […] A normalized proliferation index was calculated for each culture.
(§3) The proliferation of freshly isolated human PBMCs or CD4^+ T cells was evaluated with MTT (3-(4,5-Dimethylthiazol-2-yl)-2,5-Diphenyltetrazolium Bromide) assay (Ring et al., 2012). Cells were suspended in complete medium (RPMI 1640 supplemented with 2 mM glutamine, 25 mM HEPES, 10% heat inactivated fetal bovine serum, 100 U/ml penicillin, 10 mg/ml streptomycin, 5 mM R-mercaptoethanol) in a concentration 1 million cells per milliliter. The assay was performed in 96-well plates in duplicates or triplicates, where each well was pre-coated with 3 μg/ml anti-CD3 antibody for 3-5 h at 37° C. Each well was loaded with 100,000 cells. Drugs were added to the wells at the relevant concentrations. The plate was incubated for 68 h at 37° C. (95% O2, 5% CO2) and then, a media-soluble tetrazolium dye MTT was added to a final concentration of 1 mM after which the plate was incubated for additional 4 h. The plate was then centrifuged at 2,000 RPM for 10 min to pellet the insoluble purple formazan crystals. The supernatant culture media was collected, stored at −80° C. and used for analysis of cytokines using the multiplex proximity extension assay (PEA). The formazan crystal pellet was dissolved in DMSO and the plate was read within 10 min using a Multiskan MS plate reader (Labsystems) at 550 nm. The optical density value was used as the proliferation index value. Drugs were purchased from Sigma-Aldrich or Tocris (Bristol, UK).

[1] = test system: PBMCs from type 1 diabetic (T1D) patients; conditions: GABA 100 nM
Experimental: as §3
(§4) Plasma samples, and culture media samples that were collected from plate wells at the end of the proliferation assay, were analyzed by multiplex PEA with an Olink Inflammation […] panel, targeting 92 proteins related to inflammation (Olink Proteomics, Uppsala, Sweden) as previously described (Edvinsson et al., 2017, Assarsson et al., 2014, Larsson et al., 2015, Larssen et al., 2017). Briefly, 1 μl of sample (plasma samples or cell culture media samples) or negative control was mixed with 3 μl probe solution containing a set of 92 paires DNA-oligonucleotide-conjugated antibodies. Upon recognition of a target protein by a pair of probes, the DNA oligonucletodies on the antibodies are brought in proximity and hybridize to each other, followed by enzymatic DNA polymerization to form a new DNA molecule. The newly formed DNA molecule is then amplified and quantified using a microfluidic real-time qPCR, BioMark™ HD (Fluidigm, South San Francisco, Calif., USA). The generated quantification cycle (Cq) values are normalized against spiked-in controls to convert Cq values to Normalized Protein eXpression (NPX) value on log2 scale. NPX is an arbitrary unit, which is positively correlated to protein concentration. These NPX data were then converted to linear data, using the formula 2^NPX, prior to further statistical analysis. Limit of detection (LOD) for each protein was defined as three standard deviations above the background. Proteins with levels below LOD were excluded from further data analysis.

[2] = test system: PBMCs from nondiabetic (ND) individuals; conditions: GABA 100 nM, normalized to control
Experimental: as §3, §4

[3] = test system: non-responder CD4+ T cells; assay: Proliferation of anti-CD3 stimulated GABA non-responder CD4+ T cells from ND individuals; type: cell-based, human
Experimental: as §1, §2
The proliferation of freshly isolated human PBMCs or CD4^+ T cells was evaluated with MTT (3-(4,5-Dimethylthiazol-2-yl)-2,5-Diphenyltetrazolium Bromide) assay (Ring et al., 2012). Cells were suspended in complete medium (RPMI 1640 supplemented with 2 mM glutamine, 25 mM HEPES, 10% heat inactivated fetal bovine serum, 100 U/ml penicillin, 10 mg/ml streptomycin, 5 mM R-mercaptoethanol) in a concentration 1 million cells per milliliter. […] The formazan crystal pellet was dissolved in DMSO and the plate was read within 10 min using a Multiskan MS plate reader (Labsystems) at 550 nm. […]

[4] = test system: non-responder CD4+ T cells; assay: Multiplex PEA of cytokines released into culture medium by non-responder CD4+ T cells; type: cell-based, human
Experimental: as §3, §4

[5] = T1D PBMCs, normalized to control
[6] = GABA 100 nM, non-responder CD4+ T cells, normalized to control
[7] = GABA 500 nM, non-responder CD4+ T cells, normalized to control

## NCCCC(=O)O [GABA, gamma-aminobutyric acid]
Responder CD4+ T cells
  proliferation in the presence of GABA: did proliferate less
[1]; [5]
  4E-BP1 in culture medium, % Mean: 45.5%
  ADA in culture medium, % Mean: 53.4%
  AXIN1 in culture medium, % Mean: 62.8%
  CASP-8 in culture medium, % Mean: 60.9%
  CCL4 in culture medium, % Mean: 85.1%
  CCL19 in culture medium, % Mean: 43.8%
  CCL20 in culture medium, % Mean: 31.5%
  CD244 in culture medium, % Mean: 76.3%
  CSF-1 in culture medium, % Mean: 70.5%
  CXCL1 in culture medium, % Mean: 52.6%
  CXCL5 in culture medium, % Mean: 68.1%
  CXCL6 in culture medium, % Mean: 54.0%
  CXCL9 in culture medium, % Mean: 45.5%
  CXCL10 in culture medium, % Mean: 42.5%
  CXCL11 in culture medium, % Mean: 61.4%
  EN-RAGE in culture medium, % Mean: 71.1%
  Flt3L in culture medium, % Mean: 62.9%
  IL-1 alpha in culture medium, % Mean: 43.5%
  IL-2RB in culture medium, % Mean: 73.0%
  IL-4 in culture medium, % Mean: 117.0%
  IL-5 in culture medium, % Mean: 85.3%
  IL-6 in culture medium, % Mean: 49.4%
  IL-10 in culture medium, % Mean: 61.4%
  IL-12B in culture medium, % Mean: 53.3%
  IL-13 in culture medium, % Mean: 53.0%
  IL-17A in culture medium, % Mean: 58.9%
  IL-18R1 in culture medium, % Mean: 63.3%
  IL-24 in culture medium, % Mean: 86.9%
  LAP TGF-beta-1 in culture medium, % Mean: 67.6%
  LIF in culture medium, % Mean: 70.0%
  MCP-1 in culture medium, % Mean: 53.0%
  MCP-2 in culture medium, % Mean: 35.4%
  MCP-3 in culture medium, % Mean: 44.6%
  MIP-1 alpha in culture medium, % Mean: 106.2%
  MMP-1 in culture medium, % Mean: 78.4%
  MMP-10 in culture medium, % Mean: 61.3%
  OPG in culture medium, % Mean: 45.1%
  OSM in culture medium, % Mean: 69.8%
  PD-L1 in culture medium, % Mean: 57.0%
  SIRT2 in culture medium, % Mean: 53.5%
  STAMP8 in culture medium, % Mean: 53.9%
  TGFA in culture medium, % Mean: 61.1%
  TNF in culture medium, % Mean: 47.4%
  TNFRSF9 in culture medium, % Mean: 71.1%
  TNFSF14 in culture medium, % Mean: 69.9%
  TRAIL in culture medium, % Mean: 67.0%
  TWEAK in culture medium, % Mean: 55.7%
  VEGF-A in culture medium, % Mean: 82.1%
  μPA in culture medium, % Mean: 86.3%
[1]; n=13, FIG. 4c
  number of cytokines whose release was increased: two
[2]
  AXIN1 in culture medium, % Mean: 82.3%
  CCL4 in culture medium, % Mean: 95.3%
  CD244 in culture medium, % Mean: 92.5%
  CXCL9 in culture medium, % Mean: 81.3%
  IL-12B in culture medium, % Mean: 84.8%
  IL-18R1 in culture medium, % Mean: 90.7%
  LIF in culture medium, % Mean: 88.5%
  OPG in culture medium, % Mean: 81.8%
  OSM in culture medium, % Mean: 88.1%
  PD-L1 in culture medium, % Mean: 87.8%
  SIRT2 in culture medium, % Mean: 81.6%
  TNF in culture medium, % Mean: 74.1%
  TNFB in culture medium, % Mean: 95.7%
  TNFRSF9 in culture medium, % Mean: 99.6%
  TNFSF14 in culture medium, % Mean: 89.2%
  TWEAK in culture medium, % Mean: 86.3%
[3]; Example 1, FIG. 1A, CD4-positive cells from 5 healthy donors, 100 nM GABA
  proliferation in the presence of GABA: did not proliferate less
[3]; Example 2, non-responder T cell population
  decrease of proliferation by GABA: did not decrease
[4]; [6]
  IL-1 alpha in culture medium, % Mean: 112.8%
  MMP-1 in culture medium, % Mean: 124.2%
[4]; [7]
  IL-5 in culture medium, % Mean: 87.2%
  PD-L1 in culture medium, % Mean: 120.4%
  TGF-alpha in culture medium, % Mean: 109.5%
[4]; GABA 100 and 500 nM, at each concentration
  number of cytokines whose secretion was regulated: four
